Test results as given in US20110207744A1, “Method for treating cognitive deficits” (H. Lundbeck A/S, priority 2008, published 2011).

What was measured:
[1] = test system: subchronic PCP treated rats; conditions: given acutely; Rodefer et al. (2008); cited from earlier work
[2] = test system: sub-chronic PCP treated rats; assay: novel object recognition (NOR) test in sub-chronic PCP treated rats; format: in vivo, rat
Protocol: The NOR test was performed as described in the above cited reference (Grayson 2007).
Acquisition trial. […] Data are expressed as mean±s.e.m. (n=9-10 per group) and were analysed by ANOVA and post-hoc student's t-test.
Retention trial. […] Data are expressed as mean±s.e.m. (n=9-10 per group) and were analysed by ANOVA and post-hoc student's t-test.
Data are expressed as the mean±s.e.m. (n=9-10 per group) and were analysed using ANOVA followed by post-hoc Dunnett's t-test.
Locomotor activity. […] Data are expressed as mean±s.e.m (n=9-10 per group) and were analysed by ANOVA and post-hoc Dunnett's t-test.

[3] = test system: subchronic PCP treated rats; assay: attentional set-shifting in subchronic PCP rat disease model (executive functioning); format: in vivo; conditions: for EDS discrimination performance (trials to criterion) vs PCP+vehicle group: 30 min before test
Description: The attentional set-shifting paradigm is an animal model which allows assessment of executive functioning via intra-dimensional (ID) versus extra-dimensional (ED) shift discrimination learning. A schizophrenia-disease-like animal model with subchronic phencyclidine (PCP) administration plus washout period is applied.
Accordingly, the cognitive enhancing properties of a compound can be investigated by testing whether the compound is attenuating the “attentional performance impairment” induced by subchronic PCP administration in rats.
Methodology. In vivo assessment of “attentional set-shifting performance” was conducted as described by Rodefer et al. (Eur. J. Neurosci. 21:1070-1076 (2005)), and was based on a modified version of the task designed by Birrell & Brown (J. Neurosci. 20:4320-4324 (2000)). Briefly, Male Long-Evans rats (Harlan, Indianapolis, Ind.) weighing approximately 250 g at the beginning of the study in four groups (n=12 each group) were used. After habituating to the colony room environment, rats received a series of subchronic injections of PCP (5 mg/kg, i.p.) or saline twice daily for 7 days, followed by a washout period of 10 days before beginning the set-shifting procedure in which animals were required to dig in a pot to retrieve a food reward (half of a Honey Nut Cheerio® (General Mills, Minneapolis, Minn., USA)) using either digging medium or scented odor as the dimensional cue. The test chamber was a Plexiglas® box (50×37.5×25 cm) with an opaque barrier separating one-third of the box from the rest (along the long axis of the box). […]
Habituation was performed for several days before testing; a pot filled with wood chip bedding used in the rats' home cages and baited with several Cheerios® was placed in each rat's cage, to accustom them to retrieving food rewards from the pots. […] The rats therefore could investigate the digging medium with paws or snout before executing a “dig” response, and these choices were not scored. […]

[4] = biological target: dopamine D2 receptors (Homo sapiens, UniProt P14416); conditions: WO 2005/016900; cited from earlier work
[5] = biological target: D1 receptor (Homo sapiens, UniProt P21728); assay: PET study, D1 receptor occupancy (11C-SCH23390 tracer); format: in vivo; conditions: healthy subjects, read-out: D1 receptor occupancy in putamen
[6] = test system: rats; assay: condition avoidance response (CAR) model; format: in vivo, rat; conditions: at very low levels of D2 receptor occupancy
Description: The compound of formula I is a putative antipsychotic compound with affinity for both dopamine D1 and D2 receptors.

[7] = test system: 5-HT2 receptor; conditions: WO 2005/016900; cited from earlier work
[8] = biological target: D2 receptor (Homo sapiens, UniProt P14416); assay: PET study, D2 receptor occupancy (11C-raclopride tracer); format: in vivo; conditions: healthy subjects, read-out: D2 receptor occupancy in the putamen
[9] = biological target: dopamine D1 receptors (Homo sapiens, UniProt P21728); conditions: WO 2005/016900; cited from earlier work
[10] = test system: α1 adrenoceptors; conditions: WO 2005/016900; cited from earlier work
[11] = 2 mg/day given daily for 18 days
[12] = 10 mg/day given daily for 18 days

Sequence of D1 receptor (P21728 whole entry): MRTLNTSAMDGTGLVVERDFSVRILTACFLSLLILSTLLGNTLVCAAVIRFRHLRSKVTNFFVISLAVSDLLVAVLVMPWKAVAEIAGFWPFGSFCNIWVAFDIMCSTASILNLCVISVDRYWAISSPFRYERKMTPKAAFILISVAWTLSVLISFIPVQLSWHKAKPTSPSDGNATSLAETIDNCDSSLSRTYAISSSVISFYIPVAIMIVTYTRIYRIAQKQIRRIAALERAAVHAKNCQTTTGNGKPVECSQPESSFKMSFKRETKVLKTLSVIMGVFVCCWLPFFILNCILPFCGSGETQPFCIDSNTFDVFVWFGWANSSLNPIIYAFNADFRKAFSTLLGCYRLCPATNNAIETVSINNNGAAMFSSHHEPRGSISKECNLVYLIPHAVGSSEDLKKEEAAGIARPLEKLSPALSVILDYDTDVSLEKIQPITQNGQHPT
Sequence of D2 receptor (P14416 whole entry): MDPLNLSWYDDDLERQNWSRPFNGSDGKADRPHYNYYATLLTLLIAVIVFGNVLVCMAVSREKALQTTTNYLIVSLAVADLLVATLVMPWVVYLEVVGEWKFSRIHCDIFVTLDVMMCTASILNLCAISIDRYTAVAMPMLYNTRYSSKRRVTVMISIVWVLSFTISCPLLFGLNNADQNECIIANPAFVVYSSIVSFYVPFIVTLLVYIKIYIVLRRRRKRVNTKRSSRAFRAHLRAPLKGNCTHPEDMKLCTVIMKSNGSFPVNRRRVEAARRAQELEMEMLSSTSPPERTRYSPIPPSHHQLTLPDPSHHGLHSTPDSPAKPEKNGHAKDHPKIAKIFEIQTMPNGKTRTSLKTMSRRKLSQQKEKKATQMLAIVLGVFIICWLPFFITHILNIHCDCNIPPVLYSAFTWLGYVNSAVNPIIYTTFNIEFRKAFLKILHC
Sequence of dopamine D1 receptors (P21728 whole entry): as the sequence (P21728 whole entry) above
Sequence of dopamine D2 receptors (P14416 whole entry): as the sequence (P14416 whole entry) above

For `O=C(CCCN1CCC(O)(c2ccc(Cl)cc2)CC1)c1ccc(F)cc1` [haloperidol], the “reversing PCP-disrupted attentional performance” value [1] is given as “ineffective”.

In the case of `Cc1nc2n(c(=O)c1CCN1CCC(c3noc4cc(F)ccc34)CC1)CCCC2` [risperidone], the “reversing PCP-disrupted attentional performance” value [1] is given as “ineffective”.

With `CN1CCN(C2=Nc3cc(Cl)ccc3Nc3ccccc32)CC1` [clozapine, reference compound] the “PCP-induced reduction of discrimination index” value ([2]; 2.5 mg/kg i.p.) was “no significant effect”.

In the case of `CN1CCN([C@@H]2C[C@@H](c3ccccc3)c3ccc(Cl)cc32)CC1(C)C` [Compound I, trans-4-((1R,3S)-6-chloro-3-phenylindan-1-yl)-1,2,2-trimethylpiperazine], the “locomotor activity (total number of line crossings)” value ([2]; 2.5 mg/kg s.c., p<0.05 compared to vehicle) is reported as “significantly reduced”, the “time spent exploring the identical objects, acquisition phase” value ([2]; acute 0.5-2.5 mg/kg s.c.) is reported as “no significant difference” and the “sub-chronic PCP-induced impairment, novel vs familiar object exploration, retention phase” value ([2]; acute, all three doses 0.5, 1.25, 2.5 mg/kg s.c.) is reported as “significantly attenuated”. For the same compound, the “EDS discrimination performance (trials to criterion) vs PCP+vehicle group” value ([3]; 1.25 mg/kg s.c., t=3.09, p<0.05) was “significantly attenuated”, the “EDS discrimination performance (trials to criterion) vs PCP+vehicle group” value ([3]; 2.5 mg/kg s.c., t=3.80, p<0.01) was “significantly attenuated” and the “behavior on all other discrimination problems” value ([3]; 1.25 or 2.5 mg/kg s.c., all ps>0.05) was “No evidence was found that either dose of Compound I impacted behavior”. The “affinity for dopamine D2 receptors (antagonist)” value [4] was “high affinity”, the receptor occupancy at 2 mg [5, 11] was 32% and the receptor occupancy at 10 mg [5, 12] was 69%. For the same compound, the “antipsychotic activity in CAR model” value [6] was “possesses antipsychotic activity”, the “affinity for the 5-HT2 receptor (antagonist)” value [7] was “high affinity” and the receptor occupancy at 2 mg [8, 11] was 11%. The receptor occupancy at 10 mg [8, 12] was 43%, the “affinity for dopamine D1 receptors (antagonist)” value [9] was “high affinity” and the “affinity for α1 adrenoceptors” value [10] was “high affinity”.
